Reference: patent US9371337B2, “β-lactamase inhibitors” (The Regents of the University of California, priority 2011, dated 2016)
Where two headings read alike, the source gives them in different places.

Tests used:
CTX-M-9 β-lactamase = CTX-M-9 β-lactamase (Escherichia coli, UniProt Q9L5C8); assay: biochemical; assay type: biochemical
Experimental: Reactions were initiated by the addition of 0.3 nM enzyme and monitored at 405 nm.
(§1) To assess the selectivity of the new molecules we determined Ki values against three common serine proteases, Trypsin, Elastase and α-Chymotrypsin, as well as that of a class A β-lactamase, CTX-M-9 (Table 10) (Pouvreau L, et al. (1998), FEBS Lett 423:167-172; Del Mar E G, et al. (1980), Biochemistry 19:468-472; Rodriguez-Martinez J A, et al. (2009), Biotechnol Lett 31:883-887; Chen Y, et al. (2005), J Mol Biol 348:349-362).

[1] = target: T1, α-chymotrypsin (bovine pancreatic) (Bos taurus, UniProt P00766); assay: α-Chymotrypsin inhibition; assay type: biochemical
T1 construct: purchased Sigma-Aldrich
Experimental: α-Chymotrypsin assays were performed in 50 mM Tris buffer pH 7.5 with 0.01% Triton-X. Inhibitor and 0.001 mg/mL enzyme were incubated at their final concentration for 10 min before the reaction was initiated by the addition of 200 μM N-succinyl-Ala-Ala-Pro-Phe p-nitroanilide and monitored at 410 nm.
as §1

cruzain = cruzain (Trypanosoma cruzi, UniProt P25779); assay: Cruzain inhibition, Z-FR-AMC cleavage; assay type: biochemical
Experimental: Cruzain assays were performed in 100 mM sodium acetate pH 5.5 with 0.01% Triton-X and 5 mM dithiothreitol. Cruzain activity was measured in a 96-well format fluorimetric assay, monitoring the cleavage of the substrate Z-Phe-Arg-aminomethylcoumarin (Z-FR-AMC), in a SpectraMax M5, Molecular Devices spectrofluorimeter.

[2] = tested on: E. cloacae overproducing chromosomally-mediated class C β-lactamase; assay: MIC of third-generation cephalosporins alone and with compounds 4 or 9 (Table 3); assay type: cell-based, Enterobacter cloacae; conditions: ratio 1:1
Excerpt: (§2) Antimicrobial activity was investigated quantitatively to determine the minimum inhibitory concentrations (MICs) of the β-lactam/inhibitor combination necessary to inhibit the bacterial growth (Table 3). The MICs of β-lactams alone against the strains corresponded to a high level of resistance according to Clinical and Laboratory Standards Institute (CLSI) standards. (Clinical and Laboratory Standards Institute, Performance standards for antimicrobial susceptibility testing, 20th Informational Supplement, M100-S20 2010) The compounds had no measurable antibiotic activity when used alone.
(§3) Susceptibility testing was performed and interpreted following the guidelines of CLSI. (Clinical and Laboratory Standards Institute, Performance standards for antimicrobial susceptibility testing, 20th Informational Supplement, M100-S20 2010) The compounds were dissolved in 50% DMSO, and dilutions were performed using Muller-Hinton medium. An adequate final concentration was obtained to determine the minimum inhibitory concentrations (MICs). The concentration of DMSO was maintained below 5%. The inhibitors were tested for synergy with the third-generation β-lactams ceftazidime and cefotaxime against several clinical bacteria. […] Each value reported reflects the average of three independent experiments. […] A Klebsiella pneumoniae isolate produced the inducible plasmid-mediated class C enzyme DHA-1. The Friedman's test and the Wilcoxon signed rank test were used to compare MIC values. Statistical significance was established at p<0.05.

[3] = tested on: C. freundii overproducing chromosomally-mediated class C β-lactamase; assay: as above; assay type: cell-based, Citrobacter freundii; conditions: ratio 1:1
Excerpt: as §2, §3

[4] = tested on: P. aeruginosa overproducing chromosomally-mediated class C β-lactamase; assay: as above; assay type: cell-based, Pseudomonas aeruginosa; conditions: ratio 1:1
Excerpt: as §2, §3

[5] = tested on: K. pneumoniae producing the plasmid-mediated class C β-lactamase DHA-1; assay: as above; assay type: cell-based, Klebsiella pneumoniae; conditions: ratio 1:1
Excerpt: as §2, §3

[6] = tested on: E. coli overproducing chromosomally-mediated class C β-lactamase; assay: as above; assay type: cell-based, Escherichia coli; conditions: ratio 1:1
Excerpt: as §2, §3

[7] = tested on: E. coli producing plasmid-mediated class A β-lactamase CTX-M-14; assay: as above; assay type: cell-based, Escherichia coli; conditions: ratio 1:1
Excerpt: as §2, §3

[8] = tested on: Klebsiella pneumoniae strain producing AmpC β-lactamase; assay: Disk diffusion plate assay; assay type: cell-based; conditions: for inhibition of bacterial growth in combination with ceftazidime: disk with ceftazidime (30 μg) and inhibitor (30 μg); for activity on bacteria growth, compound alone: disk with inhibitor alone (30 μg)
Excerpt: (§4) FIG. 9. Inhibition of bacterial growth and potentiation effect. A) Activity of compounds 4 (CP4) and 9 (CP9) in combination with ceftazidime (CAZ) and alone against a Klebsiella pneumoniae strain producing AmpC β-lactamase. Solvent (SOL):DMSO/Water 1:1. B) Potentiation of β-lactamase inhibition in an E. cloacae strain in which ampC gene expression is inducible by β-lactam antibiotics, such as cefoxitin (FOX). C) Potentiation of β-lactamase inhibition in a Klebsiella pneumoniae isolate producing the inducible class C enzyme DHA-1.
For disk diffusion plate assays, bacterial strains were diluted in sterile water to a turbidity equivalent to 0.5 McFarland turbidity standards. After a subsequent 10-fold dilution, the bacterial suspensions were inoculated on Mueller Hinton agar. The plates were dried for 10 min before applying the disks containing cefotaxime or ceftazidime antibiotics (30 μg) or the inhibitor (30 μg) or both. After overnight incubation at 37° C., the zones of bacterial-growth inhibition were measured.

[9] = tested on: K. pneumoniae and E. cloacae strains in which AmpC expression is inducible; assay: β-lactamase induction experiments (disk potentiation of ceftazidime); assay type: cell-based, Klebsiella pneumoniae; Enterobacter cloacae; conditions: 64 μg of compounds or 32 μg cefoxitin per disk, ceftazidime disk 30 μg
Excerpt: as §4
A traditional β-lactam resistance mechanism is the upregulation of β-lactamase-encoding gene transcription caused by β-lactams such as cefoxitin and the β-lactamase inhibitor clavulanate. To test the role of compounds on the induction of AmpC expression, we investigated their ability to potentiate the action of the β-lactam ceftazidime. We compared the potentiation effect of compounds with that of cefoxitin (FIGS. 9B and 9C). Agar plates were inoculated with K. pneumoniae and E. cloacae strains in which AmpC expression is inducible. A ceftazidime-containing disk and a disk containing the inhibitors (cefoxitin or compounds 4 and 9) were placed on each plate. As ceftazidime diffuses from disks into the agar, a clear zone is created around the ceftazidime-containing disk, indicating where bacteria are unable to grow. The shape of this halo in the vicinity of the inhibitor-containing disk indicated the effect of these compounds on the induction of AmpC. The inhibition halos normally surrounding ceftazidime were substantially diminished in the regions nearest to the cefoxitin disk.
For the β-lactamase induction experiments, plates of Mueller Hinton agar were inoculated with two clinical strains (E. cloacae and K. pneumoniae) in which production of AmpC-type enzyme is inducible by β-lactam antibiotics. Inhibitors were added to blank disks, and the final content of inhibitor per disk was 64 μg of compounds and 32 μg cefoxitin. Disks of ceftazidime contained 30 μg of antibiotic.

AmpC β-lactamase [10] = target: T2, AmpC β-lactamase (Escherichia coli, UniProt P00811); assay type: biochemical; conditions: enzyme incubation and dilution experiments
T2 construct: made in house

AmpC β-lactamase [11] = target: T2, AmpC β-lactamase; assay: biochemical; assay type: biochemical
Experimental: FIG. 18. Representative IC50 curves. […] IC50 curves were obtained by measuring rates (in duplicates) at different inhibitor concentrations (x-axis) and by determining the residual activity (y-axis, in percentage). IC50 values were determined by non-linear regression and Ki values calculated using GraphPad software assuming competitive inhibition.
Sulfonamidomethaneboronic acids were dissolved in 100% DMSO at a concentration of 100 mM; more diluted stocks were prepared as necessary. […] The enzyme was expressed and purified as described (Usher, K. C. et al., Biochemistry 1998, 37, 16082-16092) and CENTA was purchased from Tydock Pharma.
Kinetic measurements were run at room temperature in 50 mM sodium-cacodylate pH 6.5 in the presence of 0.01% Triton-X to prevent non-specific inhibition via compound aggregation. […] (Kettner, C. A. and Shenvi, A. B., J. Biol. Chem. 1984, 259, 15106-15114) Reactions were performed in 1 mL cuvettes with 60 μM CENTA and initiated by adding 1.2 nM enzyme. […] (Weston, G. S. et al., J. Med. Chem. 1998, 41, 4577-4586) The first 180 sec of each reaction were used to measure initial rates. IC50 values were obtained by fitting binding data to a sigmoidal dose-response equation using GraphPad Prism (GraphPad software, Inc). Ki values were determined by the use of Cheng-Prusoff equation. (Cheng, Y. and Prusoff, W. H., Biochem. Pharmacol. 1973, 22, 3099-3108)

Elastase = target: T3, Elastase (Sus scrofa, UniProt P00772); assay: Elastase inhibition; assay type: biochemical
T3 construct: IC50 (Estimated from single concentration measurement); Ki
Excerpt: as §1

Trypsin = target: T4, Trypsin (UniProt P00760); assay: Trypsin inhibition; assay type: biochemical
T4 construct: IC50 (Estimated from single concentration measurement); Ki
T4 sequence (P00760 1-246): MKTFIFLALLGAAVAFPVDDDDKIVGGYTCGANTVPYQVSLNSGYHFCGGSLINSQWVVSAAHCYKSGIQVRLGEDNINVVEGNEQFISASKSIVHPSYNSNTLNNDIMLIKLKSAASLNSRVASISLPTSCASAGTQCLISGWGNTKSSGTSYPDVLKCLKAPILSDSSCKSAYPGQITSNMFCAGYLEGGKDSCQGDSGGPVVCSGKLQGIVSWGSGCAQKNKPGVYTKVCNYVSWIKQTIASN

[12] = Table 8, read-out: Ki vs CTX-M-9
[13] = Table 4f, read-out: IC50 (from multi- or single concentration measurements)
[14] = Table 4g, read-out: Ki (from multi- or single concentration measurements)
[15] = Table 4e, read-out: IC50 (Estimated from single concentration measurement)

T3 sequence (P00772 27-266): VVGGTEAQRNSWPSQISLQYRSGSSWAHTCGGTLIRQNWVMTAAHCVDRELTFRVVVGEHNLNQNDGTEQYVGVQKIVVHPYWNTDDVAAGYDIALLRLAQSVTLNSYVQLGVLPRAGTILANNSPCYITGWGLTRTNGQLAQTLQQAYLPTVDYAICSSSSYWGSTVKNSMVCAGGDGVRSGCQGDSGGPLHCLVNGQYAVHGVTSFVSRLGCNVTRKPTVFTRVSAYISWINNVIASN
Sequence of CTX-M-9 β-lactamase (Q9L5C8 29-291): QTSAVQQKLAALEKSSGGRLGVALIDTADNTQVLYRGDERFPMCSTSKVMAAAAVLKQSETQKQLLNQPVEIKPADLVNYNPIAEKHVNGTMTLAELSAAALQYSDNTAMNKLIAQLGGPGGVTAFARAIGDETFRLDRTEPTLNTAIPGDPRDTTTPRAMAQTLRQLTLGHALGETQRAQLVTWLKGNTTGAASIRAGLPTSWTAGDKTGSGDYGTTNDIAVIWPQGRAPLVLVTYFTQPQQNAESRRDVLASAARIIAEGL
T2 sequence (P00811 20-377): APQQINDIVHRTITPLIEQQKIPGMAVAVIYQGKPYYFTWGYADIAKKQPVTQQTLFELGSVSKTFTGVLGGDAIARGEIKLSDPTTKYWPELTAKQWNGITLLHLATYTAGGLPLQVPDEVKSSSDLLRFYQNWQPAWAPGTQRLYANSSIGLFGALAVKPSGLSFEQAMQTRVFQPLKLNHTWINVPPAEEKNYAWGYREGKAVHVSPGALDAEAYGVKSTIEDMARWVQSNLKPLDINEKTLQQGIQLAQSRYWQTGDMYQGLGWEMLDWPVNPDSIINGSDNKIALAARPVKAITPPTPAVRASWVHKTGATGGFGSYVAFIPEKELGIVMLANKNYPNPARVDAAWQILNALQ
Sequence of cruzain (P25779 123-337 limits assumed): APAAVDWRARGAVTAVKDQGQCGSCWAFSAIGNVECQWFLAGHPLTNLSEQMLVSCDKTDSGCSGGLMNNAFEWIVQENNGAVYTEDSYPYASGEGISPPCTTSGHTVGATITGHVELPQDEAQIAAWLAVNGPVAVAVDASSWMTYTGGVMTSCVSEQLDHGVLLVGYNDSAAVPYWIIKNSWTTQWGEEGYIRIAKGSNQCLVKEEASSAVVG

| Compound | IC50 (CTX-M-9 β-lactamase; Table 4a, read-out: IC50) | inhibition at 100 µM [1] | inhibition at 100 µM (cruzain) | MIC of cefotaxime with compound [2] | MIC of ceftazidime with compound [2] | MIC of cefotaxime with compound [3] | MIC of ceftazidime with compound [3] | MIC of cefotaxime with compound [4] | MIC of ceftazidime with compound [4] | MIC of cefotaxime with compound [5] | MIC of ceftazidime with compound [5] | MIC of cefotaxime with compound [6] | MIC of ceftazidime with compound [6] | MIC of cefotaxime with compound [7] | MIC of ceftazidime with compound [7] | inhibition of bacterial growth in combination with ceftazidime [8] | activity on bacteria growth, compound alone [8] | effect on the ceftazidime inhibition halo (induction of AmpC) [9] | Ki (CTX-M-9 β-lactamase; [12]) | further results |
| --- | --- | --- | --- | --- | --- | --- | --- | --- | --- | --- | --- | --- | --- | --- | --- | --- | --- | --- | --- | --- |
| O=S(=O)(Cc1ccccc1)NCB(O)O [Compound 4, Pinacol(phenylmethanesulfonylamino)methaneboronate] | 6.87 µM | no measurable inhibition | no measurable inhibition | 4 µg/mL | 4 µg/mL | 2 µg/mL | 4 µg/mL | 16 µg/mL | 4 µg/mL | 4 µg/mL | 8 µg/mL | 1 µg/mL | 4 µg/mL | 16 µg/mL | 2 µg/mL | large inhibition halo | little or no detectable activity | synergic picture |  | Ki (CTX-M-9 β-lactamase): 2500 nM; Ki (CTX-M-9 β-lactamase; read-out: Ki corresponding to the IC50 values): 2530 nM; IC50 [1]: > 500 µM; IC50 (cruzain): > 500 µM |
| O=C(O)c1ccc(CS(=O)(=O)NCB(O)O)cc1 [Compound 9, [(4-carboxyphenyl)methanesulfonylamino]methaneboronic acid] | 1.5 µM | no measurable inhibition | no measurable inhibition | 8 µg/mL | 4 µg/mL | 4 µg/mL | 4 µg/mL | 32 µg/mL | 8 µg/mL | 2 µg/mL | 4 µg/mL | 2 µg/mL | 8 µg/mL | 8 µg/mL | 1 µg/mL | large inhibition halo | little or no detectable activity | synergic picture | 550 nM | IC50 ([1]; read-out: IC50): > 500 µM; IC50 (cruzain; read-out: IC50): > 500 µM; time dependence of inhibition (incubation effect, off-rate) (AmpC β-lactamase [10]): no measurable time dependence |
| CO[C@@]1(NC(=O)Cc2cccs2)C(=O)N2C(C(=O)O)=C(COC(N)=O)CS[C@@H]21 [cefoxitin, reference compound] |  |  |  |  |  |  |  |  |  |  |  |  |  |  |  |  |  | antagonist picture |  |  |
| Pinacol(chloromethanesulfonylamino)methaneboronate [CR70] |  |  |  |  |  |  |  |  |  |  |  |  |  |  |  |  |  |  | 5900 nM | IC50 (AmpC β-lactamase [11]; [13]): 1550 nM; Ki (AmpC β-lactamase [11]; [14]): 300 nM; Ki (AmpC β-lactamase [11]; Table 7, read-out: Ki Vs AmpC): 310 nM; Ki (AmpC β-lactamase [11]; Table 8, read-out: Ki vs AmpC): 310 nM; potency estimated from few doses (CTX-M-9 β-lactamase; [15]): 16 µM; IC50 (CTX-M-9 β-lactamase; [13]): 16 µM; Ki (CTX-M-9 β-lactamase; [14]): 5900 nM; Percentage inhibition with 16 μM inhibitor (CTX-M-9 β-lactamase; Table 4d, 16 μM inhibitor): 50; Percentage activity with 100 μM inhibitor ([1]; Table 4b, 100 μM inhibitor): 90; Percentage inhibition with 100 μM inhibitor ([1]; Table 4c, 100 μM inhibitor): 10; potency estimated from few doses [1, 15]: 900 µM; Percentage inhibition with 100 μM inhibitor (Elastase): 90; Percentage activity with 100 μM inhibitor (Elastase; Table 4b, 100 μM inhibitor): 10; potency estimated from few doses (Elastase; [15]): 11 µM; Percentage activity with 100 μM inhibitor (Trypsin; Table 4b, 100 μM inhibitor): 97; Percentage inhibition with 100 μM inhibitor (Trypsin; Table 4c, 100 μM inhibitor): 3; potency estimated from few doses (Trypsin; [15]): 3.23 mM |
